# Like-named read-outs stand apart in the source and are kept apart here.
# Assays:
# [1] = cited from earlier work; for metabolism and defluorination relative to the undeuterated compound: U.S. Patent 4,154,971, U.S. Patent 4,153,636
# [2] = cited from earlier work
# mice = settings: cited from earlier work
# Male Sprague-Dawley rats = test: Induction of anesthesia in exposure chamber at 3% anesthetic; type: in vivo; settings: initial concentration 3% anesthetic in 100% oxygen, 3.8 L chamber
# Protocol: (§1) The animals were exposed in a 3.8 L plastic exposure chamber with an atmosphere of 100% oxygen. Male Sprague-Dawley rats (200-220g, 4 per group) were placed in the chamber and the chamber was flushed with oxygen and sealed. Anesthetic was introduced into the chamber in liquid form via an injection port. Quantities were introduced to give initial concentrations of 3% anesthetic (enflurane, 464 µl; sevoflurane and D2-sevoflurane, 524 µl). The rats became anesthetized within 4-6 minutes after introduction of each anesthetic. Oxygen and carbon dioxide were monitored periodically during the exposure period with an Ohmeda 6000 multi-gas monitor.
# [3] = Incubations with soda lime in static systems; type: physicochemical; settings: for degradation products with soda lime: static system
# rat liver microsomes = type: in vitro ADME, male Sprague-Dawley rats; settings: for defluorination by rat liver microsomes, nmol F^- /mg protein/30 min ± S.E.: 1 µl anesthetic per incubation, mean and standard error of triplicate determinations; for percent decline from sevoflurane values (degree of inhibited metabolism): following correction for background (0.43)
# Protocol: The metabolism of D2-sevoflurane is expected to liberate one fluoride ion for each molecule metabolized by cytochrome P450 since the metabolism of sevoflurane liberates fluoride and hexafluoroisopropanol. To determine the metabolism of D2-sevoflurane relative to sevoflurane and enflurane, these anesthetics were incubated with hepatic microsomes from untreated male Sprague-Dawley rats (200-230g), or rats treated with isoniazid (80mg/kg, i.p. for 5 days), or phenobarbital (0.2% in the drinking water for 4 days). Isoniazid induces the cytochrome P450 isozyme P450 2E1 which is thought to metabolize the volatile anesthetics, and phenobarbital induces several forms also shown to play a role in anesthetic metabolism in the rat.
# Each incubation vial (6 ml plastic vial) contained 3 ml of 5 mg/ml microsomal protein in a 0.1 M sodium phosphate buffer, pH 7.4. An NADPH generating system was added to cytochrome P450 activity, and the NADPH generating system was omitted from control incubations. […] Reactions were stopped by placing the vials on ice. Fluoride was assayed in the microsomal mixtures using fluoride ion-specific electrodes (Fisher Scientific) and a 720A Orion pH/ISE meter. Following incubation microsomes were mixed with an equal volume of TISABII buffer for fluoride analysis. Fluoride in each sample was determined from standard curves constructed using fluoride standards (10^-7 to 10^-3 M NaF) prepared from a commercially available standard solution (10^-1 M NaF).
# [4] = Breakdown by soda lime in an anesthesia circuit (gas chromatography); type: physicochemical; settings: for production of volatile degradation by-products: soda lime temperature maintained in the range of 4°C to 27°C
# Protocol: An anesthesia circuit containing fresh soda lime (1.5 kg) was set up with an anesthesia machine (Foregger F 500). […] The gases were re-circulated at a total circuit flow rate of 1.5 liters per minute (a relatively low clinical total flow rate) in a closed system with a respirator. Carbon dioxide was added to the circuit at a constant rate of 200 ml per minute. This set up the conditions for "worst case" breakdown of sevoflurane by soda lime.
# Experiments were conducted at exothermic temperature versus with the soda lime canister immersed in an ice bath. […] Products were continually detected for the remainder of the experiments (up to eight hours) by gas chromatography.
# [5] = In vivo metabolism: plasma fluoride after 30 minute inhalation exposure; design: species or system Male Sprague-Dawley rats; settings: 30 minute exposure, 3% anesthetic
# Description: Untreated rats or rats treated with isoniazid or phenobarbital were exposed to D2-sevoflurane, sevoflurane, or enflurane to determine the relative rates of fluoride production in vivo.
# as §1
# Following a 30 minute exposure period, the chamber was flushed with 100% oxygen for 5 minutes and the animals rapidly awakened. The rats were immediately removed and injected i.p. with 80 mg/kg secobarbital. While anesthetized 3 to 4 ml of blood were withdrawn by cardiac puncture within 15 minutes of termination of anesthetic exposure (within 10 minutes of removal from the chamber). Plasma was prepared and fluoride analyzed as described above.
# [6] = cited from earlier work; remark: listed apart in the source
# [7] = Animal Treatment: Phenobarbital
smiles,measurement,setting,value
"[2H]C(F)(Cl)C(F)(F)OC(F)F (stereo not drawn) [1,1,2-trifluoro-2-chloro-2-deuteroethyl-difluoromethyl ether]",metabolism and defluorination relative to the undeuterated compound,[1],slower metabolism and thus slower defluorination
"[2H]C(F)(Br)C(F)(F)OC(F)F (stereo not drawn) [1,1,2-trifluroro-2-bromo-2-deuteroethyl difluoromethyl ether]",metabolism and defluorination relative to the undeuterated compound,[1],slower metabolism and thus slower defluorination
"[2H]C(Cl)(Cl)C(F)(F)OC [1,1-difluoro-2,2-dichloro-2-deuteroethyl methyl ether]",metabolism and defluorination relative to the undeuterated compound,[1],more readily metabolized into inorganic fluoride than the undeuterated compound
same,metabolism and defluorination relative to the undeuterated compound,"[1]; listed as 1,1 difluoro-2-2-dichloro-2-deuteroethyl methyl ether",increase inorganic fluoride release
"[2H]C(Cl)(Cl)C(F)(F)OC(F)F [1,1-difluoro-2-deutero-2,2-dichloroethyl difluoromethyl ether]",metabolism and defluorination relative to the undeuterated compound,[1],slower metabolism and thus slower defluorination
"[2H]C([2H])([2H])OC(F)(F)C(Cl)Cl [2,2-dichloro-1,1-difluoro-1-methoxy-D3-ethane]",metabolism and defluorination relative to the undeuterated compound,[1],decreased metabolism
FC(F)OC(F)(C(F)F)C(F)F [(CHF2)2CF-O-CHF2],anesthetic properties,[2]; in vivo,weak anesthetic in which deep anesthesia is not obtained
same,electro-encephalographic and convulsant activity,[2]; in vivo,abnormal electro-encephalographic and convulsant activity is observed
COC(F)(C(F)(F)F)C(F)(F)F [CH3OCF(CF3)2],non-anesthetic up to (concentration),"[2]; U.S. Patent 3,683,092",> 8 % by volume in oxygen
FC(F)OCC(F)(F)C(F)(F)F [CHF2OCH2CF2CF3],convulsions,mice,produces convulsions
same,anesthetic properties,[2]; in vivo,non-anesthetic up to its lethal concentration
"[2H]C([2H])(F)OC(C(F)(F)F)C(F)(F)F [D2-sevoflurane, fluoro-dideutero-methyl-1,1,1,3,3,3,-hexafluoro-2-propyl ether]",time until rats became anesthetized after introduction of anesthetic,Male Sprague-Dawley rats,4 to 6 min
same,"degradation with soda lime, compared with sevoflurane",[3]; similar experiments to those run with sevoflurane,essentially the same
same,"defluorination by rat liver microsomes, nmol F^- /mg protein/30 min ± S.E.",rat liver microsomes; Animal Treatment: Isoniazid,1.55 ± 0.39 nmol F^- /mg protein/30 min
same,"defluorination by rat liver microsomes, nmol F^- /mg protein/30 min ± S.E.",rat liver microsomes; Animal Treatment: None,0.62 ± 0.60 nmol F^- /mg protein/30 min
same,"defluorination by rat liver microsomes, nmol F^- /mg protein/30 min ± S.E.",rat liver microsomes; [7],0.18 ± 0.03 nmol F^- /mg protein/30 min
same,percent decline from sevoflurane values (degree of inhibited metabolism),rat liver microsomes; microsomes from isoniazid treated rats,79%
same,defluorinated slower than sevoflurane (% less),"rat liver microsomes; microsomes from phenobarbital and isoniazid treated rats, over a wide range of anesthetic concentrations (figures 1 and 2)",70-86%
same,percent decline from sevoflurane values (degree of inhibited metabolism),rat liver microsomes; microsomes from phenobarbital treated rats,84%
same,percent decline from sevoflurane values (degree of inhibited metabolism),rat liver microsomes; microsomes from untreated rats,68%
same,production of volatile degradation by-products,[4],virtually insignificant levels
same,"plasma fluoride liberated, % less than sevoflurane",[5]; isoniazid treated rats,61%
same,"plasma fluoride, % less than enflurane anesthetized animals",[5]; isoniazid treated rats,80%
same,"plasma fluoride liberated, % less than sevoflurane",[5]; phenobarbital treated animals,66%
same,"plasma fluoride, % less than enflurane anesthetized animals",[5]; phenobarbital treated rats,45%
same,"plasma fluoride liberated, % less than sevoflurane",[5]; untreated rats,34%
same,"plasma fluoride, % less than enflurane anesthetized animals",[5]; untreated rats,40%
[2H]C(Cl)(Br)C(F)(F)F (stereo not drawn) [Deuterated Halothane],effect of deuteration on metabolism,"[1]; Sipes et al., J. Pharmacol. Exp. Ther. 214: 716-720, 1980","inhibits its metabolism to trifluoroacetic acid, but not its metabolism to release fluoride"
"FCOC(C(F)(F)F)C(F)(F)F [Sevoflurane, fluoromethyl-1,1,1,3,3,3-hexafluoro-2-propyl ether]",time until rats became anesthetized after introduction of anesthetic,Male Sprague-Dawley rats,4 to 6 min
same,degradation products with soda lime,[3]; 22°C,"some degradation products including ""Compound A"" were detected"
same,degradation products with soda lime,[3]; 45°C,"substantial degradation products, including ""Compound A"", were produced"
same,lower flammability limit in oxygen,[6],about 11.8 volume percent
same,"defluorination by rat liver microsomes, nmol F^- /mg protein/30 min ± S.E.",rat liver microsomes; [7],1.18 ± 0.06 nmol F^- /mg protein/30 min
same,time after circuit start at which degradation products were detected,"[4]; exothermic temperature, soda lime core 44°C to 47°C, initial concentration 2.7%, flow 1.5 liters per minute",about 1.5 hours
same,degradation products detected,"[4]; soda lime canister in ice bath, core 22°C to 27°C, run up to eight hours",no degradation products were detected
same,production of volatile degradation by-products,[4],virtually insignificant levels
FC(F)OC(F)(F)C(F)Cl (stereo not drawn) [enflurane],time until rats became anesthetized after introduction of anesthetic,Male Sprague-Dawley rats,4 to 6 min
same,anesthetic concentration-dependent inhibition of metabolism,rat liver microsomes; microsomes from isoniazid treated rats (figure 1),anesthetic concentration-dependent inhibition of metabolism
"FC(F)C(F)(F)COC(F)(F)F [trifluoromethyl-2,2,3,3-tetrafluoropropyl ether]",concentration causing violent convulsions and death (as low as),mice,.5%
